Legend:
Format in all cases: physicochemical
[1] = Critical Micelle Concentration (CMC) via equilibrium surface tensiometry; settings: pure water, 22° C.
Method: Determination of Critical Micelle Concentration (CMC) via Equilibrium Surface Tensiometry. […] Dipping distance for the plate was set to 3.00 mm prior to return to the surface within +/−0.01 mm for measurement of surface tension force. All tests were performed at 22° C.±0.2° C. For each surfactant a 1.00% stock solution in pure water was prepared and incrementally dosed into initially pure water to augment surfactant concentration while measuring surface tension after each concentration augmentation. Each surfactant was tested in duplicate runs at concentrations ranging from 0.001% to 0.500% of surfactant. The CMC value is taken at the intersection between the regression straight line of the linearly dependent region and the straight line passing through the plateau when surface tension is plotted as a function of concentration.

[2] = STERC via bubble pressure tensiometry; settings: at the CMC
Method: Dynamic surface tension reduction, i.e. surface tension reduction as a function of time, is measured by bubble pressure tensiometry using the maximum bubble pressure (MBP) method. When dynamic surface tension data obtained from MBP experiments is plotted as a function of surface age, fitting of the data to a first-order decay function as in Formula (III) enables one to obtain the Surface Tension Equilibration Rate Constant (STERC) for a given surfactant at a specific concentration.
Surface Tension Equilibration Rate Constant (STERC) is calculated according to Formula (III): γt=γeq+(γi−γeq)^−t/K (III) where: • γt=surface tension at time=t, in mN/m; • γeq=equilibrium surface tension, in mN/m; • γi=initial surface tension, in mN/m; • t=time, in ms; and • K=surface tension equilibration rate constant (STERC) in ms^−1.
Determination of STERC via Bubble Pressure Tensiometry. Dynamic surface tensions were determined on a Kruss BP100 Bubble Pressure Tensiometer, using a 0.256 mm OD silane-treated glass capillary submerged to a depth of 1.00 cm for testing and buoyancy compensated. […] The STERC as reported herein is determined at the CMC and is obtained by plotting the dynamic surface tension as a function of surface age and fitting the data to the equation below to obtain a first-order rate constant for reduction of surface tension from the initial value to the equilibrium value. […]

[3] = Solubilization of 1% Spectrastat G2 Natural by solubilizer, Formulation Turbidity (FT); settings: 5% solubilizer, aqueous
Method: (§1) Measurement of Turbidity via Nephelometric Turbidimetry. Clarity of solutions and formulations is reported as Aqueous Solution Turbidity (AST) or Formulation Turbidity (FT) measured in nephelometric turbidity units (NTU). Turbidity values were determined on an HF Scientific Micro 100 Benchtop Turbidity Meter operating at room temperature (23° C.±2° C.). Aqueous Solution Turbidity is an inherent property of a PGE composition when measured as specified at 5% in deionized water at 23±2° C.

[4] = Aqueous Solution Turbidity (AST) / water solubility and clarity of 5% and 10% aqueous solutions
Method: as §1

Heptyl Glucoside [CE4]
CMC [1]: 0.0672 wt %
STERC at CMC ([2]; 22° C.): 3226 ms^−1
STERC ([2]; unit printed s^−1): 3226 s⁻¹
FT [3]: 4.21 NTU
AST @ 5% ([4]; 5% in deionized water, 23±2° C.): 0.65 NTU
AST @ 10% ([4]; 10% in deionized water): 1.2 NTU
